Assay results published in patent US20240148821A1, “PHARMACEUTICAL USE OF CYCLIC PEPTIDE COMPOUND” (CHUGAI SEIYAKU KABUSHIKI KAISHA, priority 2021, published 2024).
Numbered stars: 1 amine (or outer) side, 2 acyl side, 3 side chain; on linkers, the order of the positions; unused ones are H or OH. Bridge positions count the residues as written; N and C are the ends. Square brackets hold non-standard residues; d marks the D form. Peptide text beside a SMILES is read from it. * marks the point of attachment. hPhe(3,5-F2-4-CF3) = N[C@@H](CCc1cc(F)c(C(F)(F)F)c(F)c1)C(=O)O; hPhe(3-Cl-4-CF3) = N[C@@H](CCc1ccc(C(F)(F)F)c(Cl)c1)C(=O)O; hPhe(3-F,4-CF3) = N[C@@H](CCc1ccc(C(F)(F)F)c(F)c1)C(=O)O; NMeAbu(4,4,4-F3) = CN[C@@H](CC(F)(F)F)C(=O)O; NMePhe(4-Cl) = CN[C@@H](Cc1ccc(Cl)cc1)C(=O)O; NMedβ3hAla = C[C@H](CC(=O)[*:2])N(C)[*:1]; Phe(4-Cl) = N[C@@H](Cc1ccc(Cl)cc1)C(=O)O; Phe(3-I) = N[C@@H](Cc1cccc(I)c1)C(=O)O; Pro(4,4-F2) = O=C(O)[C@@H]1CC(F)(F)CN1; Met(O2) = CS(=O)(=O)CC[C@H](N)C(=O)O; NMeY = CN[C@@H](Cc1ccc(O)cc1)C(=O)O; NMeCha = CN[C@@H](CC1CCCCC1)C(=O)O; NMeChg = CN[C@H](C(=O)O)C1CCCCC1; NMeF = CN[C@@H](Cc1ccccc1)C(=O)O; NMeI = CC[C@H](C)[C@H](NC)C(=O)O; NMeD = CN[C@@H](CC(=O)O)C(=O)O; NMeL = CN[C@@H](CC(C)C)C(=O)O; NMeNva = CCC[C@H](NC)C(=O)O; NMeV = CN[C@H](C(=O)O)C(C)C; d(β3hA) = C[C@@H](N)CC(=O)O; Morpholide = C1CN(*)CCO1; NMeA = CN[C@@H](C)C(=O)O; NMeAib = CNC(C)(C)C(=O)O; Nle = CCCC[C@H](N)C(=O)O; Piperidide = C1CCN(*)CC1; Pyrrolidide = C1CCN(*)C1; Ac5c = NC1(C(=O)O)CCCC1; Aze = O=C(O)[C@@H]1CCN1; CF3 = FC(F)(F)*; Sar = CNCC(=O)O

Each molecule was assayed on Human pancreatic cancer cell line AsPC-1 (G12D mutation Kras) (assay: AsPC-1 cell growth inhibition (AsPC-1 CGI)). Details: read-out: AsPC-1 cell growth inhibition, 50% growth inhibitory concentration (IC50 value); 96 hours, CellTiter-Glo, values classified in ranges.
Assay type: cell-based
Procedure: Test compounds were serially dilated with dimethyl sulfoxide, and 200 nL was then dispensed to a U-bottom 96-well plate using Labcyte Echo. […] The cell suspension was dispensed to a. plate containing a test compound at 100 μL per well and incubated at 37° C. in a 5% carbon dioxide gas incubator. 96 hours later, 80 μL of CellTiter-Glo (Promega) was added to each well and fluorescence was measured.

| SMILES | IC50 [nM] |
| --- | --- |
| CC[C@H](C)[C@@H]1NC(=O)[C@H](C)N(C)C(=O)C[C@@H](C(=O)N2CCCCC2)N(C)C(=O)[C@H](C(C)C)N(C)C(=O)C2(CCCC2)NC(=O)[C@@H]2CCCN2C(=O)[C@H](CCc2ccc(C(F)(F)F)c(Cl)c2)NC(=O)[C@H]2CCCN2C(=O)[C@H](CC2CCCCC2)N(C)C(=O)[C@@H]2CCN2C(=O)CN(C)C1=O [Compound 447] ([NMeA]I[Sar][Aze][NMeCha][dP][hPhe(3-Cl-4-CF3)]P[Ac5c][NMeV][NMeD]-Piperidide; lactam N-11) | > 500 |
| CCCC[C@@H]1NC(=O)[C@H](Cc2cccc(I)c2)NC(=O)CN(C)C(=O)[C@H](Cc2ccc(Cl)cc2)N(C)C(=O)CN(C)C(=O)CN(C)C(=O)[C@H]([C@@H](C)CC)NC(=O)[C@H](CC(C)C)N(C)C(=O)C[C@@H](C(=O)N2CCCCC2)N(C)C(=O)[C@H](CC(C)C)NC(=O)[C@H](Cc2ccc(Cl)cc2)N(C)C1=O [Compound 934] ([NMeL]I[Sar][Sar][NMePhe(4-Cl)][Sar][Phe(3-I)][Nle][NMePhe(4-Cl)]L[NMeD]-Piperidide; lactam N-11) | > 500 |
| CC[C@H](C)[C@@H]1NC(=O)[C@H](CC(C)C)N(C)C(=O)C[C@@H](C(=O)N2CCOCC2)N(C)C(=O)[C@H]([C@@H](C)CC)N(C)C(=O)C2(CCCC2)NC(=O)[C@@H]2CCCN2C(=O)[C@H](CCc2ccc(C(F)(F)F)c(Cl)c2)NC(=O)CN(C)C(=O)[C@H](CC2CCCCC2)N(C)C(=O)CN(C)C(=O)CN(C)C1=O [Compound 1979] ([NMeL]I[Sar][Sar][NMeCha][Sar][hPhe(3-Cl-4-CF3)]P[Ac5c][NMeI][NMeD]-Morpholide; lactam N-11) | ≤ 20 |
| CCCC[C@@H]1NC(=O)[C@H](Cc2cccc(I)c2)NC(=O)CN(C)C(=O)[C@H](Cc2ccc(Cl)cc2)N(C)C(=O)CN(C)C(=O)CN(C)C(=O)[C@H]([C@@H](C)CC)NC(=O)[C@H](CC(C)C)N(C)C(=O)C[C@@H](C(=O)N2CCCCC2)N(C)C(=O)[C@H](CC(C)C)NC(=O)[C@H](Cc2ccc(OC(F)(F)F)cc2)N(C)C1=O [Compound 819] ([NMeL]I[Sar][Sar][NMePhe(4-Cl)][Sar][Phe(3-I)][Nle][NMeY](CF3)L[NMeD]-Piperidide; lactam N-11) | > 500 |
| CCC[C@H]1C(=O)NC2(CCCC2)C(=O)N(C)[C@@H](C2CCCCC2)C(=O)N(C)[C@H](C(=O)N2CCCCC2)CC(=O)N(C)[C@@H](CC(C)C)C(=O)N[C@@H]([C@@H](C)CC)C(=O)N(C)CC(=O)N2CCC[C@H]2C(=O)N(C)[C@@H](CC2CCCCC2)C(=O)N(C)CC(=O)N[C@@H](CCc2ccc(C(F)(F)F)c(Cl)c2)C(=O)N1C [Compound 392] ([NMeL]I[Sar]P[NMeCha][Sar][hPhe(3-Cl-4-CF3)][NMeNva][Ac5c][NMeChg][NMeD]-Piperidide; lactam N-11) | > 500 |
| CC(C)C[C@H]1C(=O)N[C@@H](CCS(C)(=O)=O)C(=O)N(C)CC(=O)N(C)CC(=O)N(C)[C@@H](CC2CCCCC2)C(=O)N(C)CC(=O)N[C@@H](CCc2ccc(C(F)(F)F)c(Cl)c2)C(=O)N2CCC[C@H]2C(=O)NC2(CCCC2)C(=O)N(C)[C@@H](C2CCCCC2)C(=O)N(C)[C@H](C(=O)N2CCCCC2)CC(=O)N1C [Compound 283] ([NMeL][Met(O2)][Sar][Sar][NMeCha][Sar][hPhe(3-Cl-4-CF3)]P[Ac5c][NMeChg][NMeD]-Piperidide; lactam N-11) | > 500 |
| CC[C@H](C)[C@@H]1NC(=O)[C@H](C)N(C)C(=O)C[C@@H](C)NC(=O)[C@H](C(C)C)N(C)C(=O)[C@H](Cc2ccccc2)N(C)C(=O)[C@H](CC(C)C)N(C)C(=O)[C@H](CCc2ccc(C(F)(F)F)c(F)c2)NC(=O)CN(C)C(=O)[C@H](Cc2ccc(Cl)cc2)N(C)C(=O)[C@@H]2CCN2C(=O)CN(C)C1=O [Compound 782] (cyclo([Aze][NMePhe(4-Cl)][Sar][hPhe(3-F,4-CF3)][NMeL][NMeF][NMeV][d(β3hA)][NMeA]I[Sar])) | > 500 |
| CC[C@H](C)[C@@H]1NC(=O)[C@H](CC(C)C)N(C)C(=O)C[C@@H](C(=O)N2CCCCC2)N(C)C(=O)[C@H](CC(C)C)NC(=O)C(C)(C)N(C)C(=O)[C@H](Cc2ccc(Cl)cc2)NC(=O)[C@H](Cc2cccc(I)c2)NC(=O)CN(C)C(=O)[C@H](CC2CCCCC2)N(C)C(=O)CN(C)C(=O)CN(C)C1=O [Compound 330] ([NMeL]I[Sar][Sar][NMeCha][Sar][Phe(3-I)][Phe(4-Cl)][NMeAib]L[NMeD]-Piperidide; lactam N-11) | > 500 |
| CC[C@H](C)[C@@H]1NC(=O)[C@H](CC(F)(F)F)N(C)C(=O)C[C@@H](C(=O)N2CCCC2)N(C)C(=O)[C@H](C2CCCCC2)N(C)C(=O)C2(CCCC2)NC(=O)[C@@H]2CC(F)(F)CN2C(=O)[C@H](CCc2cc(F)c(C(F)(F)F)c(F)c2)NC(=O)CN(C)C(=O)[C@H](CC2CCCCC2)N(C)C(=O)CN(C)C(=O)CN(C)C1=O [Compound 1281] ([NMeAbu(4,4,4-F3)]I[Sar][Sar][NMeCha][Sar][hPhe(3,5-F2-4-CF3)][Pro(4,4-F2)][Ac5c][NMeChg][NMeD]-Pyrrolidide; lactam N-11) | ≤ 20 |
| CC[C@H](C)[C@@H]1NC(=O)[C@H](CC(C)C)N(C)C(=O)C[C@@H](C)N(C)C(=O)[C@H](CC(C)C)NC(=O)C(C)(C)N(C)C(=O)[C@H](CC(C)C)NC(=O)[C@H](CCc2ccc(C(F)(F)F)c(F)c2)NC(=O)CN(C)C(=O)[C@H](CC2CCCCC2)N(C)C(=O)CN(C)C(=O)[C@@H]2CCN2C1=O [Compound 905] (cyclo([Aze][Sar][NMeCha][Sar][hPhe(3-F,4-CF3)]L[NMeAib]L[NMedβ3hAla][NMeL]I)) | > 500 |
